Experimental data as given in patent US20180360769A1, “SYSTEMS AND METHODS FOR TRANSDERMAL DRUG DELIVERY” (Elliptical Therapeutics, LLC, priority 2015, published 2018).

Assays:
[1] = tested on: moderate to severe post-operative pain; conditions: cited from earlier work
rabbit skin = conditions: in vivo
[2] = animal models; cited from earlier work
[3] = human subjects, cited from earlier work
[4] = in vivo; cited from earlier work

O=C(c1ccccc1)c1ccc2n1CCC2C(=O)O (racemic) [Toradol®, Ketorolac tromethamine]
adverse effects ([1]; administered orally for extended periods of time): gastric irritation and ulcers have been observed | efficacy compared with morphine, meperidine, or pentazocine ([1]; single-dose, moderate to severe post-operative pain): more efficacious

CCCCCCCCCCCCOS(=O)(=O)[O-].[Na+] [SDS, 5%, sodium dodecyl sulfate]
Overall Edema Score (rabbit skin; New Zealand): 2.0 | Overall Erythema Score (rabbit skin; New Zealand): 1.0

O=C(c1ccccc1)c1ccc2n1CC[C@@H]2C(=O)O [(s)-ketorolac]
skin irritation (erythema and edema), in words (rabbit skin): non-irritant | potency compared with the (r)-enantiomer [2]: approximately twice as potent | plasma concentrations compared with (r)-ketorolac ([3]; after oral administration of racemic ketorolac, all sample times): lower | clearance compared with (r)-ketorolac ([3]; single oral solution dose): greater | plasma half-life compared with (r)-ketorolac ([3]; single oral solution dose): shorter

O=C(c1ccccc1)c1ccc2n1CCC2C(=O)O (racemic) [racemic ketorolac, ketorolac]
biological half-life [4]: 4-6 hours
